The term Km denotes the substrate concentration at which the rate is half of its maximum. The term Vmax denotes the rate approached at saturating substrate. Broadly, the kcat is the number of substrate molecules converted per active site and unit of time at saturation. The kcat/Km is the second-order rate constant that governs catalysis at low substrate concentration.

The text below walks through data of US20130029391A1, “METHOD OF PREPARING KODA USING LEMNA PAUCICOSTATA” (priority 2010, published 2013).

Series [1] has as its system Lemna paucicostata SH strain allene oxide synthase SHLpAOS, SEQ ID NO: 4. Put plainly: kinetic analysis of SHLpAOS with 9-HPOT (A234 decrease, Hanes-Woolf plot). In kind it is biochemical. As for the experimental part: (§1) SHLpAOS obtained from Lemna paucicostata SH strain was subjected to kinetic analysis. […] The substrate 9-HPOT was tested at the substrate concentration of 5-53 μM. The substrate 9-HPOT was added as an EtOH solution, and the final concentration of EtOH was adjusted to 1%. 100 μl of the reaction mixture was added into a cuvette, and a decrease in absorbance at 234 nm was scanned over time for 1 minute at an interval of 2 seconds using the SmartSpec Plus Spectrophotometer (Bio-Rad). From the A234 determined, the amount of the reaction product was calculated (e=25,000). […] It is believed that compared to AtAOS, SHLpAOS is a very useful AOS in the practical production of KODA.

For series [2], the system named is Lemna paucicostata SH strain position 9-product specific lipoxygenase SHLpLOX (LpLOX-SH), SEQ ID NO: 3. The settings on record: 40 mM phosphate buffer (pH 6.0), 0.1% Tween 80, 25° C; substrate 10-100 μM. As for the experimental part:
The sequence of SHLpLOSX obtained was introduced into a vector (pET23d, Novagen) for protein expression, and then transformed into Escherichia coli (BL21(DE3), Novagen), so as to allow the expression of SHLpLOX protein. Using this SHLpLOX protein, the activity test in KODA production was carried out. […] Using a reaction mixture comprising 40 mM phosphate buffer (pH 6.0) and 0.1% Tween 80, the analysis was carried out at a temperature of 25° C. […] The amount of the reaction product was calculated from the […] determined (e=25,000). Kinetic parameters were determined using the Hanes-Woolf plot ([S]/v versus [S] plot).

Series [3] addresses rice germ position 9-specific lipoxygenase r9-LOX1 (Oryza sativa, UniProt Q76I22). The settings on record: 40 mM phosphate buffer (pH 6.0), 0.1% Tween 80, 25° C; substrate 10-100 μM.
Protocol: Using a reaction mixture comprising 40 mM phosphate buffer (pH 6.0) and 0.1% Tween 80, the analysis was carried out at a temperature of 25° C. […] The amount of the reaction product was calculated from the [MUT] determined (e=25,000). Kinetic parameters were determined using the Hanes-Woolf plot ([S]/v versus [S] plot).
Substrate in series [4]: CC/C=C\C/C=C\C=C\[C@H](CCCCCCCC(=O)O)OO
Put plainly: kinetic analysis of AtAOS with 9-HPOT (A234 decrease, Hanes-Woolf plot). In kind it is biochemical, Arabidopsis thaliana. The settings on record: other: 40 mM phosphate buffer (pH 7.5), 1% EtOH, 25° C, substrate 5-53 μM. The method, then:
(§2) To 20 μl of this 9-HPOT reaction mixture, 0.32 ng of the SHLpAOS protein or A. thaliana-derived AOS (AtAOS) protein was added and reacted at room temperature for 10 minutes. After the reaction was over, the reaction was terminated by a heat treatment at 50° C. for 3 minutes. 10 μl of this solution was analyzed by HPLC. HPLC analysis was carried out with a column: Capcell pak C-18 UG120 (4.6×250 mm), and using mobile phase: 50% acetonitrile solution (0.02% TFA), flow rate: 1 ml/min, detection wavelength: 210 nm.
as §1

Series [5] in a line: Activity test in KODA production: HPLC of linolenic acid hydroperoxide formed by LOX. It counts as biochemical. The conditions noted are these: 5 mM linolenic acid solution, pH 7, room temperature, 30 minutes; FIG. 4. The method, then: HPLC analysis was carried out with a column: Capcell pak C-18 UG120 (4.6×250 mm, Shiseido), by using column temperature: 40° C., mobile phase: 50% acetonitrile solution (0.02% TFA), flow rate: 1 ml/min, detection wavelength: 210 nm.

Series [6] can be described thus: Kinetic analysis of 9-LOX, absorbance at 234 nm, Hanes-Woolf plot. It counts as biochemical. The conditions noted are these: SHLpLOX versus r9-LOX1. The method, then:
The substrate α-linolenic acid was tested at the substrate concentration of 10-100 μM. 100 μl of the reaction mixture was added into a cuvette, and absorbance at 234 nm was scanned over time for 10 minutes at an interval of 15 seconds using the SmartSpec Plus Spectrophotometer (Bio-Rad).

Series [7] in a line: Activity test in KODA production: AOS reacted with 9-HPOT reaction mixture, HPLC. It counts as biochemical. The settings on record: 0.32 ng protein, 20 μl 9-HPOT reaction mixture, room temperature, 10 minutes; FIG. 5. As for the experimental part:
as §2

Series [8] can be described thus: Kinetic analysis of AOS, decrease in absorbance at 234 nm, Hanes-Woolf plot. In kind it is biochemical. The conditions noted are these: SHLpAOS versus AtAOS. As for the experimental part:
as §1

Where [9] appears, read: 40 mM phosphate buffer (pH 7.5), 1% EtOH, 25° C, substrate 5-53 μM.
Setting [10] is: higher in SHLpAOS than in AtAOS.

Chain of rice germ position 9-specific lipoxygenase r9-LOX1 (Q76I22 whole entry): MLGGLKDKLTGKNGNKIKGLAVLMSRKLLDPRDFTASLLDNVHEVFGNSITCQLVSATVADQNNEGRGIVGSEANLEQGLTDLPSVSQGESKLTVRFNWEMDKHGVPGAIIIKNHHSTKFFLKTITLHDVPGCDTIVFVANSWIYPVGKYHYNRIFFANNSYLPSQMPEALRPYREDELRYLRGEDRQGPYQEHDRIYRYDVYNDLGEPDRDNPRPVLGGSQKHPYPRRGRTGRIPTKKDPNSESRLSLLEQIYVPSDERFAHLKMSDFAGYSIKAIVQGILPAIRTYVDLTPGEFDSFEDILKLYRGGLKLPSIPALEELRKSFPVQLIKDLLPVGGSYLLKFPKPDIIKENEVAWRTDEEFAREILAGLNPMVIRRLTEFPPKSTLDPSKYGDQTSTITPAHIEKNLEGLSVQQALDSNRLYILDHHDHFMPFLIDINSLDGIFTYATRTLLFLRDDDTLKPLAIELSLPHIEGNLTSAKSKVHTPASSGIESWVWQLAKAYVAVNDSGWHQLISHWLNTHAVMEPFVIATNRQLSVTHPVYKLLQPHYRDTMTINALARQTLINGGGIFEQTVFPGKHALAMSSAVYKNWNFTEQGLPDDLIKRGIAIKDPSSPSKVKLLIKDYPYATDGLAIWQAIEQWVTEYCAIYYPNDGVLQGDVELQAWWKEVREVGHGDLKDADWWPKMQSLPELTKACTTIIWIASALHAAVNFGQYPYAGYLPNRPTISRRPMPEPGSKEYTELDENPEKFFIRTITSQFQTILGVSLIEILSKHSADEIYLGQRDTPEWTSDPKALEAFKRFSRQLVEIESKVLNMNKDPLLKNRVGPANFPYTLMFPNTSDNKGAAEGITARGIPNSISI

On to `CC/C=C\C/C=C\C=C\[C@H](CCCCCCCC(=O)O)OO` [9-HPOT, 9-hydroperoxylinolenic acid], for which, in series [1] (setting [9]), the Km was found to be 7.1 ± 1.9 µM, the Vmax was found to be 4.7 ± 0.3 µmol/s and the kcat was 709.2 ± 44.3 s⁻¹. Besides, in series [1] (setting [10]), the “Kcat, SHLpAOS relative to AtAOS” value is recorded as “about 2.8 fold” and the “Vmax, SHLpAOS relative to AtAOS” value was “about 2.8 fold”.
In the case of `CC/C=C\C/C=C\C/C=C\CCCCCCCC(=O)O` [α-linolenic acid, cis-9,12,15-octadecatrienoic acid], in series [2], the Km was determined as 19.2 ± 4.1 µM, the Vmax came out at 3.0 ± 0.1 µmol/min and the catalytic constant (kcat) worked out at 12.8 ± 0.538 s⁻¹. Also, in series [3], the Km was found to be 22.9 ± 1.6 µM, the Vmax was 2.8 ± 0.6 µmol/min and the kcat amounted to 10.24 ± 2.077 s⁻¹.

B1: Arabidopsis thaliana allene oxide synthase AtAOS (Arabidopsis thaliana) (protein)
chain: SGSETPDLTVATRTGSKDLPIRNIPGNYGLPIVGPIKDRWDYFYDQGAEEFFKSRIRKYNSTVYRVNMPPGAFIAENPQVVALLDGKSFPVLFDVDKVEKKDLFTGTYMPSTELTGGYRILSYLDPSEPKHEKLKNLLFFLLKSSRNRIFPEFQATYSELFDSLEKELSLKGKADFGGSSDGTAFNFLARAFYGTNPADTKLKADAPGLITKWVLFNLHPLLSIGLPRVIEEPLIHTFSLPPALVKSDYQRLYEFFLESAGEILVEADKLGISREEATHNLLFATCFNTWGGMKILFPNMVKRIGRAGHQVHNRLAEEIRSVIKSNGGELTMGAIEKMELTKSVVYECLRFEPPVTAQYGRAKKDLVIESHDAAFKVKAGEMLYGYQPLATRDPKIFDRADEFVPERFVGEEGEKLLRHVLWSNGPETETPTVGNKQCAGKDFVVLVARLFVIEIFRRYDSFDIEVGTSPLGSSVNFSSLRKASF
On to B1, for which, in series [4], the Km was 36.3 ± 1.3 µM, the Vmax was 102 µmol/min, the kcat amounted to 256 ± 4.8 s⁻¹ and the kcat/Km is 7e+06 ± 3.8e+06 M⁻¹ s⁻¹.

B2: SHLpLOX: position 9-product specific lipoxygenase derived from Lemna paucicostata SH strain (SEQ ID NO: 3), expressed in Escherichia coli (protein, listed as Lemna paucicostata)
chain: MAGFLQKVTDNLLHKAAKISGTVVLVKSNVVGFNDFADSFLDGLHELLGSGITFQLVSATVGDPKNGNKGKLGKPALLEKWITTGTFLAAGDSGFKVNFEWDEQLGVPGAVIVKNNHHGEFFLKSLTLDGAPGPRSRIHFDCNSWVYPYSTYNYDRVFFANDTYLPGEMPEPLKAYRAAELVNLRGDGVTRELKEGDRIYAYDLYNDLGDPDSGKELARPILGGSEEYPYPRRARTGRKLTKTDPKSEQRLPLVFSLNVYVPRDERFGHLKMSDFLAYSLKALAQGLVPALDAATDITPFEFDTFQDVLNLYEGGINLPTTPALENFKKQIPFPLVKELFRSDGENLFRLPTPSVIKADKFAWRTDEEFGREMLAGVNPVCIRLLKKFPPVSSLDPSIYRNQNSTMIADQLEKNMNGLSVEEALKQKKLFILDHHDSLMPYLERINTFNKIYASRTVLLLQDDGTLKPLAIELSLPVKGEKGAVSKVYTPAEHGVEGAVWQLAKAYVAVNDSGVHQLISHWLNTHATIEPFSIALNRQLSVVHPIYKLLHPHFRDTMNINAFARQILINAGGILEMTVFPGKYAMEMSSVVYKGWKLTDQALPVDLLNRGVAEKDPSSGELRLLIEDYPYAVDGLDVWNAIEEWVKEYCAIYYPSDKTLQDDTEVQAWWKEVREVGHGDKKDETWWPAMETVAELTQTCSTIIWVASALHAAVNFAQYPYAGYLPNRPTISRRFMPEPGTPEYEELETDPDRAFLKTITSQLQTLIGVSLIEILSRHSSDEIYLGQRVSAEWTSDAKALAAFKAFGEKLITIENKIIEMNVDSSLKNRNGPVKVPYTFLYPNTTDYTRVGGLTGRGIPNSISI
Regarding B2, the “LOX activity (linolenic acid hydroperoxide formed) compared with r9-LOX1” value in series [5] is reported as “much higher activity than r9-LOX1”. The “kcat/Km value relative to r9-LOX1” value in series [6] is listed as “about 1.6 fold”.

B3: SHLpAOS: allene oxide synthase derived from Lemna paucicostata SH strain (SEQ ID NO: 4), expressed in Escherichia coli; printed as LpLOX-SH in Table 2 (protein, listed as Lemna paucicostata)
chain: MSVSQSDDKAALVPQKTIPGSYGIPFITPLKDRLDFFSNEYQFFQSRVESYGSTIVRLNAPPGPFMAKNPQVIAILDGKSFPVLFDTSKVEKKNIFTGTYMPSTALTGGYRVCAYLDPSEPNHTKIKQLLLNILFNRKDHVIPEFHRAYEKLFDDMDAEIAKSGKFVFNDHNDGAAFEFLGRLFFGVSPSETELGAGGVKDANLWLFSQLCPLMTLGFLPKLLEDLLLHTFPLPPFLFKGKYQAIYKYISSVATDALTMAENLGLSREEAAHNLLFAVCFNSLGGVKVLFPGILRYIAQAGKNLQASLVSEVRSAVSSTGGELTIEALEKMPLTKSVVYESLRLDPPVKYQYGVVKKDMVIESHDRSYEVKAGETLFGYQPFATRDKKIFGPDADNFVAERFIGEEGAKVLRFVVWSNGPETTDPTPVDKQCPGKNLVVLISRLLVAEFFLRYDFFDAEIGAVPLAVKTTITSLTKATTR
Consider B3, for which, in series [7], the “AOS activity relative to AtAOS protein” value is approximately 7 fold. In series [8], the “affinity for 9-HPOT (Km) relative to AtAOS” value is on record as “about 5 fold” and the “kcat/Km value relative to AtAOS” value is reported as “about 14 fold”.
